Source: US20170315126A1, “METHOD FOR SCREENING COMPOUND SPECIFICALLY SUPPRESSING FORMATION OF CAVEOLAE OF CANCER CELLS, SCREENING KIT, VECTOR AND TRANSFORMANT TO BE USED IN KIT, AND METHOD FOR SELECTING PATIENT FOR WHOM MOLECULARLY TARGETED DRUG IS INDICATED” (NATIONAL UNIVERSITY CORPORATION NAGOYA INSTITUTE OF …, priority 2014, published 2017)

Tests used:
Type in all cases: cell-based, human
CAV1 [1] = experiment: Western blotting of CAV1 expression after siRNA transfection in pulmonary adenocarcinoma cell lines
Protocol: (§1) Western blotting analysis and IP-WB analysis were conducted by the standard methods using an Immobilon-P filter (manufactured by Millipore Corp.) and an enhanced chemiluminescence system (manufactured by GE Healthcare Inc.). pCMVpuro-Cavin-1-WT was coexpressed with various ROR1 expression constructs such as the wild type (WT), TKΔ473-564 (TKΔ1), TK564-655 (TKΔ2), TKΔ655-746 (TKΔ3), TKΔ473-655 (TKΔ1+×2), TKΔ564-746 (TKΔ2+Δ3), and TKΔ473-746 (TKA1+Δ2+A3) to identify the binding site of ROR1 and Cavin-1. pCMVpuro-CAV1-WT was coexpressed with ROR1 expression constructs such as the wild type (WT), TKΔ473-564 (TKΔ1), TKΔ564-655 (TKΔ2), TKΔ655-746 (TKΔ3), ST1Δ748-782 (ΔST1), PΔ784-851 (ΔP), and ST2Δ853 to 876 (ΔST2) to identify the binding site of ROR1 and CAV1. For these, the cells were recovered 24 hours after transfection by Fugene6 (Promega) using COS-7 cells, and IP-WB analysis was conducted.
(§2) Transfection of the siRNA (20 nM each) was conducted in accordance with the manufacturer's instruction manual using lipofectamine RNAiMAX (manufactured by Invitrogen). […] Cells were also recovered 120 hours after transfection for analysis by colorimetry to measure cell proliferation.

ROR1 = experiment: Western blotting of changes over time in ROR1 expression after siROR1 transfection; conditions: NCI-H1975; 24 hours after transfection
Protocol: as §1, §2

CAV1 [2] = experiment: Western blotting of CAV1 after siROR1 treatment in cells expressing ROR1 wild type or mutants with silent mutation; conditions: three days
Protocol: In vitro mutagenesis was conducted using KOD-plus-DNA polymerase (Toyobo), and pCMVpuro-ROR1-WTm (siROR1) and pCMVpuro-ROR1-KDm (siROR1) including silent mutations for siROR1 were prepared. Following primer of not involving amino acid substitution was used for production.
Wild type ROR1 (ROR1-WT), wild type ROR1 with an added silent mutation for siROR1 (ROR1-WTm), or kinase activity-deficient ROR1 with a silent mutation for siROR1 added (ROR1-KDm) were transfected into NCI-H1975 cells. Selection by puromycin (1.5 μg/mL) was performed after 24 hours, and the single clones were collected, and stable clones that expressed the respective ROR1 (constitutive ROR1-expressing cell lines) were prepared. These stable clones were then treated by siControl or siROR1, and the cells were recovered after three days and Western blotting analysis was conducted.
In vitro mutagenesis was conducted using KOD-plus-DNA polymerase (Toyobo), and pCMVpuro-ROR1-WTm (siROR1) and pCMVpuro-ROR1-TKA2+TKA3m (siROR1) including silent mutations for siROR1 were prepared. Following primer of not involving amino acid substitution was used for production.
(§3) Wild type ROR1 (ROR1-WT), wild type ROR1 with an added silent mutation for siROR1 (ROR1-WTm), or cavin-1 binding region-deficient ROR1 with an added silent mutation for siROR1 (ROR1-TKA2+TKA3m) were transfected into PC-9 cells. Selection by puromycin (1.0 μg/mL) was performed after 24 hours, and the cells were recovered as bulk clones and reseeded in 6-well plates. The cells were then treated by siControl or siROR1, recovered after three days, and Western blotting analysis was conducted.
In vitro mutagenesis was conducted using KOD-plus-DNA polymerase (Toyobo), and pCMVpuro-ROR1-WTm (siROR1) and pCMVpuro-ROR1-AS/T2m (siROR1) including silent mutations for siROR1 were prepared. Following primer of not involving amino acid substitution was used for production.
as §3, with “CAV1” for “cavin-1”, “(ROR1-ΔS/T2m)” for “(ROR1-TKA2+TKA3m)”

CAV1 and Cavin-1 = experiment: IP-WB analysis of binding of endogenous CAV1 and Cavin-1 under ROR1 silencing; conditions: NCI-H1975 cell extract 24 hours after transfection
Protocol: as §1
In addition, IP-WB analysis was conducted after suspending the cells in lysis buffer containing octyl glucoside (10 mM Tris-HCl (pH 8.0), 0.15 M NaCl, 5 mM EDTA, 1% Triton X-100, 60 mM octyl glucoside) using NCI-H1975, NCI-H358, and SK-LU-1 cell lines, which are pulmonary adenocarcinoma cell lines, to confirm the binding of ROR1 and Cavin-1, ROR1 and CAV1, or Cavin-1 and IGF-IR.

[3] = system: caveolae of NCI-H1975 cells; experiment: Electron microscope analysis of caveolae by rapid freezing/freeze-fracture replica labeling; conditions: 72 hours after transfection, n=18 regions
Protocol: 20 μm thick gold foil was placed in a culture dish, and NCI-H1975 cells, which are a pulmonary adenocarcinoma cell line, were cultured on top. Transfection of siControl or siROR1 was conducted. Rapid freezing was conducted using a high-pressure freezing machine (Leica Inc.) 72 hours after transfection. Freeze-fracture replicas were prepared using a BAF400 apparatus (Baltec Co.), and labeled by mouse anti-CAV2 antibody (BD Transduction Co.) after treatment by SDS. A second antibody reaction was then conducted using 10 nm gold colloid-conjugated goat anti-mouse IgG antibody (British Biocell International Co.), and the cells were examined by a JEM-1011 electron microscope. For caveolae distribution density measurement, randomly selected regions under the electron microscope (18 random cell membrane regions of 17-50 μm) were measured, and the cell membrane region of each electron micrograph was measured using ImageJ.

siROR1: RNA oligomer for RNAi against human ROR1, 5′-CAGCAAUGGAUGGAAUUUCAA-3′ (SEQ ID No: 13) (listed as RNA, further chemistry not given here)
CAV1 expression (Western blot) (CAV1 [1]; NCI-H441, NCI-H358 and PC-9, siRNA 20 nM, 72 hours after transfection): downregulation of CAV1 was found
CAV1 expression (Western blot) (CAV1 [1]; NCI-H1975, after 48 hours): downregulation of CAV1 was seen
ROR1 expression (Western blot) (ROR1): lowered the expression of ROR1
CAV1 expression (Western blot) (CAV1 [2]; NCI-H1975 stable clones expressing ROR1-KDm (kinase activity-deficient, silent mutation)): downregulation of CAV1 was not seen
CAV1 expression (Western blot) (CAV1 [2]; NCI-H1975 stable clones expressing ROR1-WT): downregulation of CAV1
CAV1 expression (Western blot) (CAV1 [2]; NCI-H1975 stable clones expressing ROR1-WTm (silent mutation against siROR1)): downregulation of CAV1 was not seen
CAV1 expression (Western blot) (CAV1 [2]; PC-9 transfected with ROR1-AS/T2m (CAV1 binding region deleted, silent mutation)): expression of CAV1 was lowered
CAV1 expression (Western blot) (CAV1 [2]; PC-9 transfected with ROR1-TKA2+TKA3m (cavin-1 binding region deleted, silent mutation)): expression of CAV1 was lowered
binding of endogenous CAV1 and Cavin-1 (IP-WB) (CAV1 and Cavin-1): decreases the binding
number of normal caveolae in random regions on the cell membrane [3]: decreases significantly
